According to ChEMBL document CHEMBL1909046, “DrugMatrix in vitro pharmacology data”:

tested on: not listed separately; assay: DRUGMATRIX: ATPase, Na+/K+ enzyme inhibition (substrate: ATP); format: tissue-based, Sus scrofa, Heart; conditions: Not Active = under 50% inhibition at 10 µM

| SMILES | IC50 | Ki |
| --- | --- | --- |
| C[C@H]1COc2c(N3CCN(C)CC3)c(F)cc3c(=O)c(C(=O)O)cn1c23.C[C@H]1COc2c(N3CCN(C)CC3)c(F)cc3c(=O)c(C(=O)O)cn1c23.O [LEVOFLOXACIN] | Not Active | Not Active |
| CCn1cc(C(=O)O)c(=O)c2cc(F)c(N3CCNC(C)C3)c(F)c21 (configuration not stated) [LOMEFLOXACIN] | Not Active | Not Active |
| CN1CCCC(CN2c3ccccc3Sc3ccccc32)C1 (configuration not stated) [MEPAZINE] | Not Active | Not Active |
| Cc1cccc(C)c1NC(=O)C1CCCCN1C (configuration not stated) [MEPIVACAINE] | Not Active | Not Active |

target: T1, Vasoactive intestinal polypeptide receptor 1 (Homo sapiens, UniProt P32241); format: cell membranes, Membrane; conditions: ht-29; also: in other assays of this panel Not Active means under 50% inhibition at 10 µM
T1 sequence (P32241 whole entry): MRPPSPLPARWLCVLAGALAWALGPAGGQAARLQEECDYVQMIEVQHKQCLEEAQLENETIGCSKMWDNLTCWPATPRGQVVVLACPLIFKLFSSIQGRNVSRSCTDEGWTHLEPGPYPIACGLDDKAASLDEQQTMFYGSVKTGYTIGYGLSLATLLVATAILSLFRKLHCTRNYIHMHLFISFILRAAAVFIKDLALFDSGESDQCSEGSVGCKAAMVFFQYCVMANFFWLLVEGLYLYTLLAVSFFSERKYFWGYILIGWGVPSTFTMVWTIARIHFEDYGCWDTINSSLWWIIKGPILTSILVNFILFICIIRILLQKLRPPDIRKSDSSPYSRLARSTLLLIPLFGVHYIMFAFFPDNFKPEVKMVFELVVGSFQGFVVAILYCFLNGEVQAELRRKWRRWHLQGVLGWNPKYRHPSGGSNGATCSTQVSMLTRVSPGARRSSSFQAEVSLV

| SMILES | IC50 |
| --- | --- |
| C[C@H]1COc2c(N3CCN(C)CC3)c(F)cc3c(=O)c(C(=O)O)cn1c23.C[C@H]1COc2c(N3CCN(C)CC3)c(F)cc3c(=O)c(C(=O)O)cn1c23.O [LEVOFLOXACIN] | Not Active |
| CCn1cc(C(=O)O)c(=O)c2cc(F)c(N3CCNC(C)C3)c(F)c21 (configuration not stated) [LOMEFLOXACIN] | Not Active |
| CN1CCCC(CN2c3ccccc3Sc3ccccc32)C1 (configuration not stated) [MEPAZINE] | Not Active |
| Cc1cccc(C)c1NC(=O)C1CCCCN1C (configuration not stated) [MEPIVACAINE] | Not Active |

target: Nitric oxide synthase 1 (Rattus norvegicus, UniProt P29476); format: tissue-based, Cerebellum; conditions: not given; also: in other assays of this panel Not Active means under 50% inhibition at 10 µM
Sequence (P29476 whole entry): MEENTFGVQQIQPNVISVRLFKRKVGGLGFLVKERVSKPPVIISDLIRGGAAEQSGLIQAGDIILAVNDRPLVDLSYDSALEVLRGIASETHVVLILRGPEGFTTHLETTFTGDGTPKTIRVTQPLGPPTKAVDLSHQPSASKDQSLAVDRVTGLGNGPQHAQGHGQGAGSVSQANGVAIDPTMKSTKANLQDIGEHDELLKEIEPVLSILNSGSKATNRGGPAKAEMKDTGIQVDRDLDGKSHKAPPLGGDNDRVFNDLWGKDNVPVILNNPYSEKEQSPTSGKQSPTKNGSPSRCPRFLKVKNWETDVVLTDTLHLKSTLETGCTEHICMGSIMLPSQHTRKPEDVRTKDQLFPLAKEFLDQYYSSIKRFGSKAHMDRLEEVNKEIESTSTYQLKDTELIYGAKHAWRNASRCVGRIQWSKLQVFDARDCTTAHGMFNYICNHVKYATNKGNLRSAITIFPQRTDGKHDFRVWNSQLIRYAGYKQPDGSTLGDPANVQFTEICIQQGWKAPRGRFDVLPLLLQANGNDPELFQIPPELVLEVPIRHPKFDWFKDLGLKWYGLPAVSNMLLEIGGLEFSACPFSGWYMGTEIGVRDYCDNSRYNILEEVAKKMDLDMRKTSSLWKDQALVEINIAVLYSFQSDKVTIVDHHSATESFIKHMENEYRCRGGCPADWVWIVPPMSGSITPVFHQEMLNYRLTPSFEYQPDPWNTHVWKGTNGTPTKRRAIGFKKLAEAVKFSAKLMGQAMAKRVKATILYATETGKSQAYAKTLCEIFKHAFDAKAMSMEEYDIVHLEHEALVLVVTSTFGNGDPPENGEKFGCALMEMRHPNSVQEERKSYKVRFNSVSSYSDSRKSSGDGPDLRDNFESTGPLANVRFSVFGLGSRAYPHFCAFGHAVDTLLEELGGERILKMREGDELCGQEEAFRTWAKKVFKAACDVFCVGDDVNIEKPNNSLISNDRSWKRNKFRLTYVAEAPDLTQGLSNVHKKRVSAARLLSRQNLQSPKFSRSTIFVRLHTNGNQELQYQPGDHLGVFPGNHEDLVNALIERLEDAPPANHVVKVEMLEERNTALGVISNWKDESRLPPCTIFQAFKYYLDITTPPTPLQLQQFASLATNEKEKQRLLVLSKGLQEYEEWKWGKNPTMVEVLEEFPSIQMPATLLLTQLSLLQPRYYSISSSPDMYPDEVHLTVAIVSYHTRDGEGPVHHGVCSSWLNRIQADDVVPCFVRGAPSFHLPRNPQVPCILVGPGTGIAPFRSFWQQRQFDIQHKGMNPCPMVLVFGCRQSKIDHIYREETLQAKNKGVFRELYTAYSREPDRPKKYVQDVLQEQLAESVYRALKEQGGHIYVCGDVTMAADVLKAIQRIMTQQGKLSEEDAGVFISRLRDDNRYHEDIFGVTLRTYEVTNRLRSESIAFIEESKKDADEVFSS

| SMILES | IC50 |
| --- | --- |
| C[C@H]1COc2c(N3CCN(C)CC3)c(F)cc3c(=O)c(C(=O)O)cn1c23.C[C@H]1COc2c(N3CCN(C)CC3)c(F)cc3c(=O)c(C(=O)O)cn1c23.O [LEVOFLOXACIN] | Not Active |
| CCn1cc(C(=O)O)c(=O)c2cc(F)c(N3CCNC(C)C3)c(F)c21 (configuration not stated) [LOMEFLOXACIN] | Not Active |
| CN1CCCC(CN2c3ccccc3Sc3ccccc32)C1 (configuration not stated) [MEPAZINE] | Not Active |
| Cc1cccc(C)c1NC(=O)C1CCCCN1C (configuration not stated) [MEPIVACAINE] | Not Active |

target: T2, Progesterone receptor (Bos taurus, UniProt Q690N0); assay: DRUGMATRIX: Progesterone radioligand binding (ligand: [3H] R-5020); format: tissue-based, Uterus; conditions: Not Active = under 50% inhibition at 10 µM
T2 sequence (Q690N0 whole entry): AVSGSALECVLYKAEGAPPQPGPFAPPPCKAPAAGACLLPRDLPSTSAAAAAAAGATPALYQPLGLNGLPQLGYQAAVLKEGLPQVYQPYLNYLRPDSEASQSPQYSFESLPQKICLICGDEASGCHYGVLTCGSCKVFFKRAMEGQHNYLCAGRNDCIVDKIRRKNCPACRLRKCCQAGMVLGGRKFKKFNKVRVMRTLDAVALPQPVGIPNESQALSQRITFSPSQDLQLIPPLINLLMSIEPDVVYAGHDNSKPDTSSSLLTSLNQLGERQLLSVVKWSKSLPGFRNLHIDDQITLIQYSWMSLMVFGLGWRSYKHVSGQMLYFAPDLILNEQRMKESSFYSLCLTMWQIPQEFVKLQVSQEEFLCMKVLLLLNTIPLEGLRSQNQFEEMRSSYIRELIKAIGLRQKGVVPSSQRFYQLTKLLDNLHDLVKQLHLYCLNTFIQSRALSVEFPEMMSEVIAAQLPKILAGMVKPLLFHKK

| SMILES | IC50 |
| --- | --- |
| C[C@H]1COc2c(N3CCN(C)CC3)c(F)cc3c(=O)c(C(=O)O)cn1c23.C[C@H]1COc2c(N3CCN(C)CC3)c(F)cc3c(=O)c(C(=O)O)cn1c23.O [LEVOFLOXACIN] | Not Active |
| CCn1cc(C(=O)O)c(=O)c2cc(F)c(N3CCNC(C)C3)c(F)c21 (configuration not stated) [LOMEFLOXACIN] | Not Active |
| CN1CCCC(CN2c3ccccc3Sc3ccccc32)C1 (configuration not stated) [MEPAZINE] | Not Active |
| Cc1cccc(C)c1NC(=O)C1CCCCN1C (configuration not stated) [MEPIVACAINE] | Not Active |

target: T3, Receptor-type tyrosine-protein phosphatase C (Homo sapiens, UniProt P08575); design: species or system Escherichia coli; conditions: not given;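 also: inhibition of CD45 enzyme activity measured using DiFMUP as substrate; in other assays of this panel Not Active means under 50% inhibition at 10 µM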
T3 sequence (P08575 whole entry): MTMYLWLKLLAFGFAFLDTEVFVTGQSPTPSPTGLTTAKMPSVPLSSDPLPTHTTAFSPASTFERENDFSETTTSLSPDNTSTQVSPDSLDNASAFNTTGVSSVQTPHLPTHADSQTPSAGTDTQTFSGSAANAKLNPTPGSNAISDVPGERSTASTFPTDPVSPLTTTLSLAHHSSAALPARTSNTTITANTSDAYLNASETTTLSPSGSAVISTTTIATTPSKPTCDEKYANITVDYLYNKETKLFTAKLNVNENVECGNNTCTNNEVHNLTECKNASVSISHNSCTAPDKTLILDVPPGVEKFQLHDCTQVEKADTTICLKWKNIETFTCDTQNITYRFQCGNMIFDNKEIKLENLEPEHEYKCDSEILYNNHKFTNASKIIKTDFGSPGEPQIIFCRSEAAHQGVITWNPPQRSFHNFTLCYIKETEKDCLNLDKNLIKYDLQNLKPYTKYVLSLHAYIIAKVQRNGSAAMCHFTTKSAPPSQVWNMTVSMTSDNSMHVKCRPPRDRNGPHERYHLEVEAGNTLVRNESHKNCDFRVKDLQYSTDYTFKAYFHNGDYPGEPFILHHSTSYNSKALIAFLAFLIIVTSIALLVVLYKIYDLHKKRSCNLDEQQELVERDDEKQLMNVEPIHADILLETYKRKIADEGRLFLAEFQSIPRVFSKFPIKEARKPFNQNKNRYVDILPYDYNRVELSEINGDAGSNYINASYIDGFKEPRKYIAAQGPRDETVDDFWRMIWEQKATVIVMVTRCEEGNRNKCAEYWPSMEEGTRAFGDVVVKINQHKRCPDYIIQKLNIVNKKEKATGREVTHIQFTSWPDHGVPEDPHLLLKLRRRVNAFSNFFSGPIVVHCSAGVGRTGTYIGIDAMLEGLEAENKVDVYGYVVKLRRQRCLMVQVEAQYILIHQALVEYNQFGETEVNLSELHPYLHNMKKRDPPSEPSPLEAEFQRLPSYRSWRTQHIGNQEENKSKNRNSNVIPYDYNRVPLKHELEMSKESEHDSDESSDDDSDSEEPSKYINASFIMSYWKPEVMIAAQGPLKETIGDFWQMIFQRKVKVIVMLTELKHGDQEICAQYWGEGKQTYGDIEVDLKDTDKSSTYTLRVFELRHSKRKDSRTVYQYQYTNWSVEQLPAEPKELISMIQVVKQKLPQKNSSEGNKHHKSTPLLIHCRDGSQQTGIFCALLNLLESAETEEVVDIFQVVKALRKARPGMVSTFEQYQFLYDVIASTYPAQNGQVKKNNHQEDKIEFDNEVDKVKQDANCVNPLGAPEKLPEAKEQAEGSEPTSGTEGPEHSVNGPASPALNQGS

| SMILES | IC50 |
| --- | --- |
| C[C@H]1COc2c(N3CCN(C)CC3)c(F)cc3c(=O)c(C(=O)O)cn1c23.C[C@H]1COc2c(N3CCN(C)CC3)c(F)cc3c(=O)c(C(=O)O)cn1c23.O [LEVOFLOXACIN] | Not Active |
| CCn1cc(C(=O)O)c(=O)c2cc(F)c(N3CCNC(C)C3)c(F)c21 (configuration not stated) [LOMEFLOXACIN] | Not Active |
| CN1CCCC(CN2c3ccccc3Sc3ccccc32)C1 (configuration not stated) [MEPAZINE] | Not Active |
| Cc1cccc(C)c1NC(=O)C1CCCCN1C (configuration not stated) [MEPIVACAINE] | Not Active |

target: T4, Cytochrome P450 1A2 (Homo sapiens, UniProt P05177); conditions: bti-tn-5b1-4; also: in other assays of this panel Not Active means under 50% inhibition at 10 µM
T4 sequence (P05177 whole entry): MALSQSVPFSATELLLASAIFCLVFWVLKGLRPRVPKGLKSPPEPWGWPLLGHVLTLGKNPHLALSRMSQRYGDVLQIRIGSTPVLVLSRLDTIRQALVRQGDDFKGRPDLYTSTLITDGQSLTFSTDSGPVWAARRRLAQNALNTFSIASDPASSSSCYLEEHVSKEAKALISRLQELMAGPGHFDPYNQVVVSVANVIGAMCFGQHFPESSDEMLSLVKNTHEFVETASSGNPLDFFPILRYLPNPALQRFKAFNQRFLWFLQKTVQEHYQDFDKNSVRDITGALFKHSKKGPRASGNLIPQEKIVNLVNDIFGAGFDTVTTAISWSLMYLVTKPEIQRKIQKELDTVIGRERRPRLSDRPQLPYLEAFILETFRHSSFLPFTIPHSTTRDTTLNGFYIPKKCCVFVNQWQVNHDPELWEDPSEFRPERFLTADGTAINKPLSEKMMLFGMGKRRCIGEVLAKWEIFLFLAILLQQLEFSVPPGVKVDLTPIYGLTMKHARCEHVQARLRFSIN

| SMILES | IC50 | Ki |
| --- | --- | --- |
| C[C@H]1COc2c(N3CCN(C)CC3)c(F)cc3c(=O)c(C(=O)O)cn1c23.C[C@H]1COc2c(N3CCN(C)CC3)c(F)cc3c(=O)c(C(=O)O)cn1c23.O [LEVOFLOXACIN] | Not Active | Not Active |
| CCn1cc(C(=O)O)c(=O)c2cc(F)c(N3CCNC(C)C3)c(F)c21 (configuration not stated) [LOMEFLOXACIN] | Not Active | Not Active |
| CN1CCCC(CN2c3ccccc3Sc3ccccc32)C1 (configuration not stated) [MEPAZINE] | Not Active | Not Active |
| Cc1cccc(C)c1NC(=O)C1CCCCN1C (configuration not stated) [MEPIVACAINE] | Not Active | Not Active |
